Experimental data taken from the NIST ThermoML archive (doi:10.1016/j.tca.2018.07.016).
Values joined by “and” are separate entries in the source; they are usually repeats but may differ in a detail not shown here. Equal entries are not always repeated.

Conditions: Liquid, Transpiration method

C1CCCCNCCC1 [octamethylenimine]
Conditions	vapor or sublimation pressure [kPa]
274.6 K	0.01266
278.3 K	0.01754
283.3 K	0.02575
288.3 K	0.03757
293.2 K	0.05489
298.1 K	0.07468
304.1 K	0.1162
309.1 K	0.1671
313.3 K	0.2073
318.1 K	0.2813
323.4 K	0.3868

C1CCCNCC1 [azacycloheptane]
Conditions	vapor or sublimation pressure [kPa]
275.3 K	0.2584
278.3 K	0.3225
281 K	0.3957
284.2 K	0.4858
287.3 K	0.604
290.2 K	0.7427
293.2 K	0.8989
296.2 K	1.051
302.2 K	1.525
305.2 K	1.824
308.1 K	2.177
311.2 K	2.409
314.2 K	3.025
317.2 K	3.485
321.2 K	4.037

C1CCCNCCC1 [heptamethyleneimine]
Conditions	vapor or sublimation pressure
276.1 K	0.08722 kPa
279.6 K	0.1144 kPa
281.3 K	0.1316 kPa
285.2 K	0.1719 kPa
288.3 K	0.22 kPa
292.1 K	0.277 kPa
292.3 K	0.2658 kPa
295.2 K	0.3338 kPa
299 K	0.4239 kPa
299.2 K	0.4202 kPa
302.1 K	0.5212 kPa
306.1 K	0.6926 kPa
309 K	0.8283 kPa and 0.7923 kPa
313 K	1.016 kPa
317 K	1.311 kPa
319.8 K	1.44 kPa
322 K	1.585 kPa
324.9 K	1.97 kPa
